This assay deals with T1, RORgT (Homo sapiens, UniProt P51449).
T1 construct: Gal4 (fusion partner); expressed in transfected cells; host or cells: engineered Jurkat cells (Jurkat pEx/Gal/hRORγ CLBD/HYG pG5luc/blast)
T1 sequence (P51449 267-516): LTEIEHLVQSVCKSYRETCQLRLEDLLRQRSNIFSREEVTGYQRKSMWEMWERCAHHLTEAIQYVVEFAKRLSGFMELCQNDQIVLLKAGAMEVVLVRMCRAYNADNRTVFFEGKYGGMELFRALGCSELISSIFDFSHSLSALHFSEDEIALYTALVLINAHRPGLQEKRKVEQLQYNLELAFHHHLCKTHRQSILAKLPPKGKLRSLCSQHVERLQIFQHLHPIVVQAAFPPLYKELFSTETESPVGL
Description: RORgT Gal4 Luciferase Reporter Gene Assay. Type of assay: cell-based. The conditions noted are these: engineered Jurkat cells overexpressing RORgT (LBD or full length) with Gal4 Luc reporter; 18 hours at 37° C.; 40 μM to 0.67 nM; read-out: RORg_GAL4 EC50. The method, then:
The compound and the cells were incubated for 18 hours at 37° C. in a cell culture incubator. Cells were then lysed with 15 uL of Steady-Glo Luciferase Assay reagent (Promega EZ550), followed by centrifuging the assay plates at 1500 RPM for 1 minute. Subsequently, the plates were read on the Envision (PerkinElmer). The inhibition of constitutive activity of RORgT achieved by graded concentrations of compound was calculated as a percentage of the luminescence signal window reduction over a control compound.

SMILES strings stand for the structures.

With `COc1ccc(Oc2c(Cl)ccc(C(=O)NCC3CCN(S(=O)(=O)C(C)C)CC3)c2Cl)cc1C(C)C` [Example 93], the EC50 (usually the concentration giving half of the maximal effect) is 0.167 µM.
For `COc1ccc(Oc2c(Cl)cc(NC(=O)Cc3cnn(C)c3)cc2Cl)cc1C(C)C` [Example 246], the EC50 came to 0.123 µM.
With `CC(C)c1cc(F)cc(Oc2c(Cl)ccc(CNC(=O)c3ccc(S(N)(=O)=O)cc3)c2Cl)c1` [Example 150], the EC50 came to 0.0082 µM.
Consider `COc1ccc(Oc2c(Cl)ccc(C(=O)NCCCn3ccnc3)c2Cl)cc1C(C)C` [Example 80], for which the EC50 is 0.287 µM.
Regarding `COc1ccc(Oc2c(Cl)cc(NC(=O)CCCS(N)(=O)=O)cc2Cl)cc1C(C)C` [Example 282], the EC50 was determined as 0.264 µM.
As for `COc1ccc(Oc2c(Cl)cc(NC(=O)N3CCOCC3)cc2Cl)cc1C(C)C` [Example 236], the figure is 0.597 µM.
Regarding `COc1ccc(Oc2c(Cl)cc(NC(=O)C[C@H]3CCCN(S(C)(=O)=O)C3)cc2Cl)cc1C(C)C` [Example 44, (R)—N-(3,5-dichloro-4-(3-isopropyl-4-methoxyphenoxy)phenyl)-2-(1-(methylsulfonyl)piperidin-3-yl)acetamide], the half-maximal effective concentration (EC50) came to 0.12 µM.
As to `COc1ccc(Oc2c(Cl)ccc(C(=O)NC[C@H]3CC[C@H](C(=O)O)CC3)c2Cl)cc1C(C)C` [Example 70], the EC50 was determined as 0.141 µM.
Take `CC(C)c1cc(F)cc(Oc2c(Cl)ccc(C(=O)N3CCC4(CC3)CN(S(=O)(=O)C3CC3)C4)c2Cl)c1` [Example 125]: the half-maximal effective concentration (EC50) is 0.548 µM.
Consider `COc1ccc(Oc2c(Cl)ccc(C(=O)NCc3ccc(C#N)cc3)c2Cl)cc1C(C)C` [Example 228], for which the EC50 was 0.102 µM.
For `COc1ccc(Oc2c(Cl)cc(NC(=O)CCC(N)=O)cc2Cl)cc1C(C)C` [Example 281], the EC50 came to 0.375 µM.
On to `COc1ccc(Oc2c(Cl)cc(NC(=O)C3(c4cccnc4)CCCCC3)cc2Cl)cc1C(C)C` [Example 348], for which the EC50 is 0.372 µM.
Next, `COc1ccc(Oc2c(Cl)ccc(CNC(=O)C3CCN(S(N)(=O)=O)CC3)c2Cl)cc1C(C)C` [Example 63]: 0.031 µM; `COc1ccc(Oc2c(Cl)cc(N)cc2Cl)cc1C(C)C` [Example 350]: 2.05 µM; `COc1ccc(Oc2c(Cl)cc(NC(=O)CC3CCCN(S(C)(=O)=O)C3)cc2Cl)cc1C(C)C` (single isomer, unassigned) [Example 42, N-(3,5-dichloro-4-(3-isopropyl-4-methoxyphenoxy)phenyl)-2-(1-(methylsulfonyl)piperidin-3-yl)acetamide]: 0.207 µM.
As for `COc1ccc(Oc2c(Cl)cc(NC(=O)CCN3CCCC3=O)cc2Cl)cc1C(C)C` [Example 291], the figure is 0.134 µM.
Regarding `COc1ccc(Oc2c(Cl)ccc(C(=O)N(C)C)c2Cl)cc1C(C)C` [Example 78], the EC50 amounted to 1.05 µM.
For `COc1ccc(Oc2c(Cl)cc(NC(=O)Cc3cnn(S(C)(=O)=O)c3)cc2Cl)cc1C(C)(C)C` [Example 256], the concentration giving a half-maximal response (EC50) was determined as 0.153 µM.
Take `CC1(c2cc(F)cc(Oc3c(Cl)ccc(C(=O)NCc4ccc(S(N)(=O)=O)cc4)c3Cl)c2)CC1` [Example 278]: the EC50 worked out at 0.0017 µM.
Take `COc1ccc(Oc2c(Cl)cc(NC(=O)CCN3CCOCC3)cc2Cl)cc1C(C)C` [Example 296]: the EC50 was 1.01 µM.
Turning to `COc1ncc(Oc2c(Cl)ccc(C(=O)NCc3ccc(S(C)(=O)=O)cc3)c2Cl)cc1C(C)(C)F` [Example 152], the EC50 stood at 0.0025 µM.
In the case of `COc1ncc(Oc2c(Cl)cc(NC(=O)CN3CC(NS(C)(=O)=O)C3)cc2Cl)cc1C(C)C` [Example 267], the EC50 came out at 0.373 µM.
As to `COc1ncc(Oc2c(Cl)ccc(C(=O)N3CCC4(CC3)CN(S(C)(=O)=O)C4)c2Cl)cc1C(C)C` [Example 118], the EC50 was determined as 0.061 µM.
Next, `COc1ccc(Oc2c(Cl)ccc(C(=O)N3CC4(CCN(S(C)(=O)=O)CC4)C3)c2Cl)cc1C(C)C` [Example 68]: 0.015 µM.
In the case of `COc1ccc(Oc2c(Cl)ccc(CNC(=O)CN3CCNCC3)c2Cl)cc1C(C)C` [Example 89], the half-maximal effective concentration (EC50) is 4.08 µM.
As for `CC1(c2cc(F)cc(Oc3c(Cl)cc(NC(=O)CC4CCN(C(=O)C(F)(F)F)CC4)cc3Cl)c2)CC1` [Example 275], the EC50 came to 0.012 µM.
Next, `Cc1ccc(Oc2c(Cl)cc(NC(=O)Cc3cccnc3)cc2Cl)cc1C(C)C` [Example 49, N-(3,5-dichloro-4-(3-isopropyl-4-methylphenoxy)phenyl)-2-(pyridin-3-yl)acetamide]: 0.344 µM.
Next, `COc1ccc(Oc2c(Cl)cc(NC(=O)CN3CC[C@@H](NS(C)(=O)=O)C3)cc2Cl)cc1C(C)C` [Example 160]: 0.325 µM; `CC(C)(F)c1cc(F)cc(Oc2c(Cl)ccc(C(=O)NCc3ccc(S(N)(=O)=O)cc3)c2Cl)c1` [Example 337]: 0.015 µM.
For `COc1ccc(Oc2c(Cl)ccc(C(=O)NC(C)c3ccc(S(C)(=O)=O)cc3)c2Cl)cc1C(C)C` (stereo not shown) [Example 105], the EC50 stood at 0.03 µM.
On to `COc1ccc(Oc2c(Cl)ccc(C(=O)NCC3CCCC(O)C3)c2Cl)cc1C(C)C` (stereo not shown) [Example 226], for which the EC50 is 0.286 µM.
Take `CCS(=O)(=O)N1CCCC(CC(=O)Nc2cc(Cl)c(Oc3ccc(OC)c(C(C)C)c3)c(Cl)c2)C1` (stereo not shown) [Example 322]: the EC50 worked out at 0.126 µM.
Regarding `COc1ccc(Oc2c(Cl)ccc(C(=O)N3CCC(O)(c4ccccc4)CC3)c2Cl)cc1C(C)C` [Example 180], the EC50 was found to be 0.325 µM.
On to `CCS(=O)(=O)N1CCN(CC(=O)Nc2cc(Cl)c(Oc3ccc(OC)c(C(C)C)c3)c(Cl)c2)CC1` [Example 313], for which the EC50 stood at 0.032 µM.
As for `COc1ccc(Oc2c(Cl)ccc(C(=O)NCCc3ccc(S(N)(=O)=O)cc3)c2Cl)cc1C(C)C` [Example 219], the EC50 stood at 1.5 µM.
As to `COc1ccc(Oc2c(Cl)cc(C(=O)NCc3ccc(S(N)(=O)=O)cc3)cc2Cl)cc1C(C)C` [Example 156], the 50% effective concentration (EC50) was determined as 1.93 µM.
As for `COc1ccc(Oc2c(Cl)cc(NC(=O)Cc3cccnc3)cc2Cl)cc1C(C)(C)C` [Example 13, N-(4-(3-(tert-butyl)-4-methoxyphenoxy)-3,5-dichlorophenyl)-2-(pyridin-3-yl)acetamide], the figure is 0.268 µM.
Next, `COc1ccc(Oc2c(Cl)cc(NC(=O)Cc3cccc(C(N)=O)c3)cc2Cl)cc1C(C)C` [Example 5, 3-(2-((3,5-dichloro-4-(3-isopropyl-4-methoxyphenoxy)phenyl)amino)-2-oxoethyl)benzamide]: 0.437 µM; `CC(C)c1cc(F)cc(Oc2c(Cl)ccc(CNC(=O)c3ccc(S(C)(=O)=O)cc3)c2Cl)c1` [Example 149]: 0.015 µM.
Take `COc1ccc(Oc2c(Cl)ccc(CNC(=O)CN3CCN(S(C)(=O)=O)CC3)c2Cl)cc1C(C)C` [Example 186]: the EC50 worked out at 0.09 µM.
As for `COc1ccc(Oc2c(Cl)ccc(C(=O)NCCCCO)c2Cl)cc1C(C)C` [Example 81], the figure is 1.31 µM; as for `COc1ccc(Oc2c(Cl)ccc(C(=O)N(C)CC3(O)CCN(S(C)(=O)=O)CC3)c2Cl)cc1C(C)C` [Example 64], 0.023 µM.
As to `CC1(c2cc(F)cc(Oc3c(Cl)cc(NC(=O)CC4CCN(S(C)(=O)=O)CC4)cc3Cl)c2)CC1` [Example 51, N-(3,5-dichloro-4-(3-fluoro-5-(1-methylcyclopropyl)phenoxy)phenyl)-2-(1-(methylsulfonyl)piperidin-4-yl)acetamide], the EC50 is 0.0017 µM.
As to `COc1ccc(Oc2c(Cl)ccc(C(=O)NCCc3ccccc3Cl)c2Cl)cc1C(C)C` [Example 199], the EC50 stood at 3.89 µM.
Turning to `COc1ccc(Oc2c(Cl)ccc(C(=O)NCc3cc(C)no3)c2Cl)cc1C(C)C` [Example 205], the EC50 amounted to 0.564 µM.
Take `COc1ccc(Oc2c(Cl)cc(NC(=O)CN3CCC[C@@H](NS(=O)(=O)C4CC4)C3)cc2Cl)cc1C(C)C` [Example 166]: the EC50 amounted to 0.424 µM.
Regarding `CCS(=O)(=O)N1CCC(C(=O)NCc2ccc(Cl)c(Oc3ccc(OC)c(C(C)C)c3)c2Cl)CC1` [Example 212], the EC50 is 0.011 µM.
Consider `COc1ccc(Oc2c(Cl)cc(NC(=O)CCn3ccnc3)cc2Cl)cc1C(C)C` [Example 297], for which the EC50 stood at 0.044 µM.
On to `CC(C)c1cc(Oc2c(Cl)ccc(C(=O)N3CCC4(CC3)CN(S(C)(=O)=O)C4)c2Cl)ccc1F` [Example 132], for which the EC50 was found to be 0.0063 µM.
As for `CC(c1cc(F)cc(Oc2c(Cl)ccc(C(=O)NCc3ccc(S(N)(=O)=O)cc3)c2Cl)c1)C(F)(F)F` (stereo not shown) [Example 356], the EC50 amounted to 0.017 µM.
With `COc1ccc(Oc2c(Cl)ccc(C(=O)NCCNC(C)=O)c2Cl)cc1C(C)C` [Example 221], the EC50 turned out to be 0.56 µM.
For the compound `COc1ncc(Oc2c(Cl)ccc(C(=O)N3CCC4(CC3)CN(S(C)(=O)=O)C4)c2Cl)cc1C(C)(C)F` [Example 30, (2,4-dichloro-3-((5-(2-fluoropropan-2-yl)-6-methoxypyridin-3-yl)oxy)phenyl)(2-(methylsulfonyl)-2,7-diazaspiro[3.5]nonan-7-yl)methanone], the EC50 is 0.216 µM.
With `COc1ccc(Oc2c(Cl)ccc(C(=O)NCc3cccc(S(C)(=O)=O)c3)c2Cl)cc1C(C)C` [Example 82], the EC50 came to 7.6 µM.
Next, `CCNC(=O)Nc1cc(Cl)c(Oc2ccc(OC)c(C(C)C)c2)c(Cl)c1` [Example 306]: 1.89 µM.
Next, `COc1ccc(Oc2c(Cl)cc(NC(=O)Cc3ccc(N)nc3)cc2Cl)cc1C(C)C` [Example 2, 2-(6-aminopyridin-3-yl)-N-(3,5-dichloro-4-(3-isopropyl-4-methoxyphenoxy)phenyl)acetamide]: 0.152 µM.

Source of the values: patent US20220306630A1, “AGONISTS OF ROR GAMMAt” (BRISTOL-MYERS SQUIBB COMPANY, priority 2019, published 2022).
